Source: US7220732B2, “Compounds useful as photodynamic therapeutic agents” (priority 2002, dated 2007)
Like-named read-outs stand apart in the source and are kept apart here.

Columns and labels:
[1] = test system: HeLa cells; assay: F-actin staining fluorescence microscopy of treated HeLa cells; format: cell-based
Experimental: FIG. 15 illustrates a control experiment which is a fluorescence microscope image of F-actin stained HeLa cells (with rhodamine phalloidine, red colour) 24 hours after treatment with Compound 2a and no exposure to light (0 min light dose). FIG. 15 illustrates such F-Actin stained cells are live.
FIG. 16 confirms cell death following treatment with Compound 2a and 30 minute 500 W light dose, using fluorescence microscopy. More specifically, FIG. 16 is a fluorescence microscope image of F-actin stained HeLa cells (with rhodamine phalloidine, red colour) 24 hours after treatment with Compound 2a and 30 minute light dose.

[2] = test system: HeLa cells; assay: Light/dark cytotoxicity study (MTT) in HeLa cells; format: cell-based
Experimental: (§1) MRC5 and HeLa cell cultures were maintained in MEM (minimum essential medium) containing 10% (v/v) foetal calf serum (FCS), 1% (v/v) non-essential amino acids, 2 μg/ml Fungizone (Trade Mark) (amphotericin B), 50 μg/ml penicillin, 50 μg/ml streptomycin, 20 mM HEPES and 1% (v/v) L-Glutamine. Cells were passaged at least twice before use in the cytotoxicity assays.
(§2) Stock haematoporphyrin water-dimethyl sulphoxide (DMSO) (100:1 (v/v)) solutions were diluted with MEM containing 10% FCS. Cells were seeded at 5,000 cells/well in 96-well plates and incubated for 24 hr at 37° C. The 24 hour incubation period was chosen having regard to the slower uptake of haernatoporphyrin in the absence of Cremophor, when compared to the compounds of the present invention in the presence of Cremophor (see below). Cells were then incubated with haematoporphyrin in the dark for 24 hr at 37° C. The haematoporphyrin laden culture medium was then removed by filtration, the cells were washed with PBS and fresh culture medium was added to each well. A 500 W light source, passed through a red glass and water filter barrier, (to ensure cells are irradiated with light of wavelength greater than 570 nm) was used to irradiate the plates for both 15 and 30 min. Following irradiation, the cells were incubated for a further 48 hr at 37° C. before being assessed for cell survival.
(§3) Stock 2a or 2b water-Cremophor EL (Trade Mark—CAS 61791-12-6) (1:250 (v/v)) solutions were diluted with MEM containing 10% FCS. Cells were seeded at 5,000 cells/well in 96-well plates and incubated for 24 hr at 37° C. Cells were then incubated with 2a or 2b in the dark for 3 hr at 37° C. The 3 hour incubation period was chosen to reflect the faster cellular uptake of 2a or 2b in the presence of Cremophor, when compared to the cellular uptake of haematoporphyrins in the absence of Cremophor. The 2a or 2b laden culture medium was then removed by filtration, the cells were washed with PBS and fresh culture medium was added to each well. The plates were then irradiated using a 500 W light source passed through a red glass and water filter barrier, (thereby ensuring cells are irradiated with light of wavelength greater than 570 nm) for both 15 and 30 min.
(§4) Following irradiation, the cells were incubated for a further 48 hr at 37° C. before being assessed for cell survival. The dark toxicity of compounds of the present invention was also assessed in each experiment.
(§5) Cell viability was estimated using the standard MTT (microtiter tetrazolium) assay. This assay measures mitochondrial dehydrogenase activity and is based on the reduction of a soluble yellow tetrazolium salt to a blue, insoluble MTT formazan product by this enzyme. The subsequent colour change produced by viable cells was quantified using a plate reader (VICTOR^2 1420 multilabel HTS counter, Wallac). As mentioned above under the headings “Cytotoxicity”, the cells are incubated at 37° C. for 48 hours, following which the MTT solution was added to the cells at a final concentration of 0.5 mg/ml and incubated for 3 hr at 37° C. The MTT solution was then removed by filtration and 100 μl DMSO was added to each well in order to lyse the cells and release the formazan dye. The plates were read 1 hr later at 540 nm.
(§6) Prism (Trade Mark) […] was used to graph the data obtained from the MTT assays and the uptake/efflux experiments. This programme allows non-linear regression analysis and the generation of sigmoidal dose response curves. Prism (Trade Mark) also automatically calculates EC50 values.
(§7) Light toxicity assays were also carried out as described above under “Assay methods” in HeLa and MRC5 cells for haematoporphyrin (FIGS. 9 and 10), 2a (FIGS. 11 and 12) and 2b (FIGS. 13 and 14).

[3] = Spectroscopic absorbance properties; format: physicochemical
Excerpt: The absorption bands of each photosensitiser are relatively insensitive to solvent changes with solutions in water/Cremophor resulting in a further bathochromic shift of ˜10 nm (Table 1). Excitation of chloroform solutions of the 2a and 4a at 635 nm gave a fluorescence band at 672 and 673 nm respectively (FIG. 2, Table 2). […] The reduction in fluorescence quantum yield in the series would imply more efficient population of the triplet excited state which would benefit singlet oxygen production. The ability of 2 and 4 to produce singlet oxygen would be a prerequisite to them being potential PDT agents.

[4] = test system: HeLa cells; assay: Fluorescence microscopy efflux study in HeLa cells; format: cell-based; conditions: after 3 hrs incubation with 10^−5 M
Experimental: Cells were seeded at a density of 30,000 cells/well in chamber slides and allowed to adhere for 24 hr. A compound of the present invention (10^−5 M) was then added to each chamber and incubated at 37° C. in the dark for 3 hrs. The same procedure was used as for the uptake studies, but for the efflux studies, the cells were treated with fixative solution at specified times after removal of the drug, for example, 5 min, 15 min, 30 min, 1 hr, 2 hr, 3 hr, 6 hr and 24 hr. The slides were then viewed using an Axio Zeiss fluorescent microscope. The cells were examined at the different time points using two different filters. The rhodamine filter was used to visualise the compound of the present invention. […]
LabWorks (Bioimaging Systems) was used to calculate the average fluorescence intensity per cell for each of the different time points used in the uptake and efflux studies for the compounds of the present invention. […] The DAPI filter was used to accurately count the number of cells in each field of view and the rhodamine filter was used to quantify the fluorescence of the compounds of the present invention.
Using the assay method set out above under the heading “Fluorescence Microscopy”, the efflux of 2a was examined from Hela cells and the data are illustrated in FIG. 7. […]

[5] = test system: MRC5 cells; assay: Light/dark cytotoxicity study (MTT) in MRC5 cells; format: cell-based
Experimental: as §1, §2, §3, §4, §5, §6, §7

[6] = Water/Cremophor (100:1), room temperature

SMILES: F[B-]1(F)n2c(-c3ccccc3)cc(-c3ccccc3)c2N=C2C(c3ccccc3)=CC(c3ccccc3)=[N+]21 [Compound 2a]
- cell state by F-actin staining ([1]; 24 hours after treatment and 30 minute 500 W light dose): cell death
- cell state by F-actin staining ([1]; 24 hours after treatment, no exposure to light): live
- EC50 ([2]; 0 J/cm^2 light (no light), read-out: EC50 (dark toxicity)): 23000 nM
- EC50 ([2]; 8 J/cm^2 light (15 mins from a 500 W light source), read-out: EC50): 4500 nM
- EC50 ([2]; 16 J/cm^2 light (30 mins from a 500 W light source), read-out: EC50): 1300 nM
- fwhm (full width at half maximum) ([3]; CHCl3, room temperature): 49 nm
- ε (molar extinction coefficient) ([3]; CHCl3, room temperature): 79,000 M^−1cm^−1
- λmax (absorbance) ([3]; CHCl3, room temperature): 650 nm
- fwhm (full width at half maximum) [3, 6]: 53 nm
- λmax (absorbance) [3, 6]: 658 nm
- time to complete efflux [4]: 1000 min
- EC50 ([5]; MRC5, 0 J/cm^2 light (no light), read-out: EC50 (dark toxicity)): 3500 nM
- EC50 ([5]; MRC5, 8 J/cm^2 light (15 mins from a 500 W light source), read-out: EC50): 2000 nM
- EC50 ([5]; MRC5, 16 J/cm^2 light (30 mins from a 500 W light source), read-out: EC50): 460 nM
